IC50 data for 26 compounds are collected here from patent publication US11208400B2, “Substituted 6-(1H-pyrazol-1-yl)pyrimidin-4-amine derivatives and uses thereof” (Bayer Aktiengesellschaft, priority 2016, dated 2021).

The assay addresses T1, human Npt2a (Homo sapiens, UniProt Q06495).
T1 construct: expressed in transfected cells
T1 sequence (Q06495 1-639): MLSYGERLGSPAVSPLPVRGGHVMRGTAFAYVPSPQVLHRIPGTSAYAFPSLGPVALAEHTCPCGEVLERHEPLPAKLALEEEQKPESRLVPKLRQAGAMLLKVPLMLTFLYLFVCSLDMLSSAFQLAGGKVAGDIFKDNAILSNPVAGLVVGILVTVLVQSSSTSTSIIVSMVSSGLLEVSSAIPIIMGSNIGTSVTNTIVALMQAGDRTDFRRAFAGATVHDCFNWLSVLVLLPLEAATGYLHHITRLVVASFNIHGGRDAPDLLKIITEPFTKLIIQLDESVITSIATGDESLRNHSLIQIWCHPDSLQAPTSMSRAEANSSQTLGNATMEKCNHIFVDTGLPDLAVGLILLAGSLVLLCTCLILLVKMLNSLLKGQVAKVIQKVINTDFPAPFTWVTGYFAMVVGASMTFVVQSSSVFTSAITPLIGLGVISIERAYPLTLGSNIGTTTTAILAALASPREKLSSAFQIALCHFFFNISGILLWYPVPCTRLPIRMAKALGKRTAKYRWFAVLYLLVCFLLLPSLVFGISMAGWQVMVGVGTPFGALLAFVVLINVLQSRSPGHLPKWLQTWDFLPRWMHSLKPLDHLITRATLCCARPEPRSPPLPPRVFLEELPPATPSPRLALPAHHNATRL
The assay can be described thus: Npt2a activity cell based assay, membrane potential dye, CHO T-REx hNpt2a cells. Conditions: doxycycline-induced, depolarization by sodium phosphate influx, average or median values if tested more than once. The gist of the method:
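Cells were doxycycline-induced CHO T-REx hNpt2a, dye-loaded and pretreated 5 min at RT with 1 nM–50 μM compound in Na-free pH 7.4 buffer. IC50 was fit to the post/pre-trigger fluorescence ratio.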
Usually IC50 stands for the concentration that gives 50% inhibition. High values mean a need for much substance, low ones inhibition by little substance. The compound `CCc1c(Nc2cc(-n3nc(C)c(C)c3O)ncn2)n[nH]c1-c1ccc(F)cc1` [Example 34, 1-(6-{[4-ethyl-5-(4-fluorophenyl)-1H-pyrazol-3-yl]amino}pyrimidin-4-yl)-3,4-dimethyl-1H-pyrazol-5-ol] returned an IC50 of 1 µM. This lies in the single-digit micromolar range. Turning to `Cc1cc(C)n(-c2cc(Nc3nn(C)c(-c4ccc(C(F)(F)F)nc4)c3C)ncn2)n1` [Example 559, 6-(3,5-dimethyl-1H-pyrazol-1-yl)-N-{1,4-dimethyl-5-[6-(trifluoromethyl)pyridin-3-yl]-1H-pyrazol-3-yl}pyrimidin-4-amine], the IC50 is 0.11 µM. For the compound `CC(=O)Cc1c(C)nn(-c2cc(Nc3c(C)c(-c4ccc(F)cc4)nn3CC3CC3)ncn2)c1C` [Example 490, 1-[1-(6-{[1-(cyclopropylmethyl)-3-(4-fluorophenyl)-4-methyl-1H-pyrazol-5-yl]amino}pyrimidin-4-yl)-3,5-dimethyl-1H-pyrazol-4-yl]propan-2-one], the midpoint of inhibition, the IC50, lay at 0.006 µM.

For the compound `Cc1cc(C(F)F)n(-c2cc(Nc3c(C)nn(-c4ccc(F)cc4)c3C)ncn2)n1` [Example 93, 6-[5-(difluoromethyl)-3-methyl-1H-pyrazol-1-yl]-N-[1-(4-fluorophenyl)-3,5-dimethyl-1H-pyrazol-4-yl]pyrimidin-4-amine], the IC50 amounted to 0.029 µM. The result for `COc1c(-c2ccc(F)cc2)nn(CC2CC2)c1Nc1cc(-n2nc(C)c(C(C)O)c2C)ncn1` (racemic) [Example 336, (±)-1-[1-(6-{[1-(cyclopropylmethyl)-3-(4-fluorophenyl)-4-methoxy-1H-pyrazol-5-yl]amino}pyrimidin-4-yl)-3,5-dimethyl-1H-pyrazol-4-yl]ethanol] reads 1.65 µM; that for `CCc1c(-c2ccc(F)cc2)nn(CC2CC2)c1Nc1cc(-n2nc(C)c3ccncc32)ncn1` [Example 205, N-[1-(cyclopropylmethyl)-4-ethyl-3-(4-fluorophenyl)-1H-pyrazol-5-yl]-6-(3-methyl-1H-pyrazolo[3,4-c]pyridin-1-yl)pyrimidin-4-amine], 0.02 µM; that for `COc1c(C)nn(-c2cc(Nc3c(C)c(-c4ccc(C#N)cc4)nn3CC3CC3)ncn2)c1C` [Example 464, 4-[1-(cyclopropylmethyl)-5-{[6-(4-methoxy-3,5-dimethyl-1H-pyrazol-1-yl)pyrimidin-4-yl]amino}-4-methyl-1H-pyrazol-3-yl]benzonitrile], 0.002 µM. Consider `Cc1nn(-c2cc(Nc3c(C)c(-c4ccc(F)cc4)nn3CC3CC3)ncn2)c(C)c1C(C)O` (single isomer, unassigned) [Example 330, 1-[1-(6-{[1-(cyclopropylmethyl)-3-(4-fluorophenyl)-4-methyl-1H-pyrazol-5-yl]amino}pyrimidin-4-yl)-3,5-dimethyl-1H-pyrazol-4-yl]ethanol], for which the IC50 was found to be 0.022 µM.

`CCOC(=O)c1c(Cl)c(C)nn1-c1cc(Nc2nn(C)c(-c3ccc(F)cc3)c2Cl)ncn1` [Example 303, ethyl 4-chloro-1-(6-{[4-chloro-5-(4-fluorophenyl)-1-methyl-1H-pyrazol-3-yl]amino}pyrimidin-4-yl)-3-methyl-1H-pyrazole-5-carboxylate]: the IC50 stood at 0.047 µM. The result for `Cc1cc(C)n(-c2cc(Nc3nn(C)c(-c4ccc(F)cc4)c3C#N)ncn2)n1` [Example 23, 3-{[6-(3,5-dimethyl-1H-pyrazol-1-yl)pyrimidin-4-yl]amino}-5-(4-fluorophenyl)-1-methyl-1H-pyrazole-4-carbonitrile] reads 0.315 µM. For `Cc1nn(-c2cc(Nc3c(Cl)c(-c4ccc(F)cc4F)nn3C)ncn2)c2ccccc12` [Example 49, N-[4-chloro-3-(2,4-difluorophenyl)-1-methyl-1H-pyrazol-5-yl]-6-(3-methyl-1H-indazol-1-yl)pyrimidin-4-amine], the half-maximal inhibitory concentration (IC50) amounted to 0.31 µM. `CCc1c(-c2ccc(F)cc2)nn(C)c1Nc1cc(-n2nc(C)cc2C(C)(C)O)ncn1` [Example 264, 2-[1-(6-{[4-ethyl-3-(4-fluorophenyl)-1-methyl-1H-pyrazol-5-yl]amino}pyrimidin-4-yl)-3-methyl-1H-pyrazol-5-yl]propan-2-ol] registered an IC50 of 0.5 µM. `COc1c(Nc2cc(-n3nc(C)c(C(O)C4CC4)c3C)ncn2)nn(C)c1-c1ccc(C#N)cc1` (racemic) [Example 459, (±)-4-{3-[(6-{4-[cyclopropyl(hydroxy)methyl]-3,5-dimethyl-1H-pyrazol-1-yl}pyrimidin-4-yl)amino]-4-methoxy-1-methyl-1H-pyrazol-5-yl}benzonitrile]: inhibition was half-maximal at 0.046 µM (IC50). Take `Cc1nn(-c2cc(Nc3nn(C)c(-c4ccc(F)cc4)c3Cl)ncn2)c(C(C)(C)O)c1Cl` [Example 304, 2-[4-chloro-1-(6-{[4-chloro-5-(4-fluorophenyl)-1-methyl-1H-pyrazol-3-yl]amino}pyrimidin-4-yl)-3-methyl-1H-pyrazol-5-yl]propan-2-ol]: the IC50 turned out to be 0.006 µM. On to `CCOC(=O)c1c(C)nn(-c2cc(Nc3c(C)c(-c4ccc(OC(F)(F)F)cc4)nn3CC3CC3)ncn2)c1C` [Example 284, ethyl 1-[6-({1-(cyclopropylmethyl)-4-methyl-3-[4-(trifluoromethoxy)phenyl]-1H-pyrazol-5-yl}amino)pyrimidin-4-yl]-3,5-dimethyl-1H-pyrazole-4-carboxylate], for which the IC50 worked out at 0.025 µM. Next, `Cc1nn(-c2cc(Nc3c(C)nn(-c4ccc(C#N)cc4)c3C)ncn2)c(C(F)F)c1Cl` [Example 200, 4-[4-({6-[4-chloro-5-(difluoromethyl)-3-methyl-1H-pyrazol-1-yl]pyrimidin-4-yl}amino)-3,5-dimethyl-1H-pyrazol-1-yl]benzonitrile]: 0.008 µM; `Cc1nn(-c2cc(Nc3c(C)c(-c4ccc(C#N)cc4)nn3CC3CC3)ncn2)c(C)c1C(O)C(F)(F)F` (racemic) [Example 358, 4-{1-(cyclopropylmethyl)-5-[(6-{3,5-dimethyl-4-[(±)-2,2,2-trifluoro-1-hydroxyethyl]-1H-pyrazol-1-yl}pyrimidin-4-yl)amino]-4-methyl-1H-pyrazol-3-yl}benzonitrile]: 0.01 µM; `COc1c(C)nn(-c2cc(Nc3c(C)c(-c4ccc(F)cn4)nn3C)ncn2)c1C` [Example 468, N-[3-(5-fluoropyridin-2-yl)-1,4-dimethyl-1H-pyrazol-5-yl]-6-(4-methoxy-3,5-dimethyl-1H-pyrazol-1-yl)pyrimidin-4-amine]: 0.3 µM. Turning to `CCOC(=O)Cc1c(C)nn(-c2cc(Nc3c(C)c(-c4ccc(F)cc4)nn3CC3CC3)ncn2)c1C` [Example 281, ethyl [1-(6-{[1-(cyclopropylmethyl)-3-(4-fluorophenyl)-4-methyl-1H-pyrazol-5-yl]amino}pyrimidin-4-yl)-3,5-dimethyl-1H-pyrazol-4-yl]acetate], the IC50 amounted to 0.016 µM. This IC50 lies about 19-fold lower than the previous one. The compound `Cc1cc(C)n(-c2cc(Nc3nn(C)c(-c4ccc(F)cc4)c3C)ncn2)n1` [Example 73, 6-(3,5-dimethyl-1H-pyrazol-1-yl)-N-[5-(4-fluorophenyl)-1,4-dimethyl-1H-pyrazol-3-yl]pyrimidin-4-amine] displayed an IC50 of 0.0157 µM. The compound `Cc1nn(-c2cc(Nc3c(C)c(-c4ccc(C#N)cc4)nn3C)ncn2)c2c1C(C)(O)CC2` (racemic) [Example 227, 4-[5-({6-[(±)-4-hydroxy-3,4-dimethyl-5,6-dihydrocyclopenta[c]pyrazol-1(4H)-yl]pyrimidin-4-yl}amino)-1,4-dimethyl-1H-pyrazol-3-yl]benzonitrile] returned an IC50 of 0.016 µM. For the compound `COc1c(C)nn(-c2cc(Nc3c(C)c(-c4ccc(F)cc4)nn3CC3CC3)ncn2)c1C` [Example 385, N-[1-(cyclopropylmethyl)-3-(4-fluorophenyl)-4-methyl-1H-pyrazol-5-yl]-6-(4-methoxy-3,5-dimethyl-1H-pyrazol-1-yl)pyrimidin-4-amine], the IC50 was 0.004 µM. This IC50 lies about 4-fold lower than the previous one.

`CCOc1ccc(-c2n[nH]c(Nc3cc(-n4nc(C)cc4C)ncn3)c2Cl)cc1` [Example 39, N-[4-chloro-3-(4-ethoxyphenyl)-1H-pyrazol-5-yl]-6-(3,5-dimethyl-1H-pyrazol-1-yl)pyrimidin-4-amine] displayed an IC50 of 0.0032 µM. The IC50 values of the last two compounds are within 1.5-fold of each other. For `CCOC(=O)c1c(C)nn(-c2cc(Nc3c(C)c(-c4ccc(F)cc4)nn3CCOC)ncn2)c1C` [Example 528, ethyl 1-(6-{[3-(4-fluorophenyl)-1-(2-methoxyethyl)-4-methyl-1H-pyrazol-5-yl]amino}pyrimidin-4-yl)-3,5-dimethyl-1H-pyrazole-4-carboxylate], the IC50 worked out at 0.004 µM.

In turn, `CCc1c(-c2ccc(F)cc2)n[nH]c1Nc1cc(-n2nc(C)cc2C(F)F)ncn1` [Example 2, 6-[5-(difluoromethyl)-3-methyl-1H-pyrazol-1-yl]-N-[4-ethyl-3-(4-fluorophenyl)-1H-pyrazol-5-yl]pyrimidin-4-amine] came in with an IC50 of 0.012 µM. Next, `CCc1c(Nc2cc(-n3nc(C)c4c3CCC4=O)ncn2)nn(C)c1-c1ccc(F)cc1` [Example 273, 1-(6-{[4-ethyl-5-(4-fluorophenyl)-1-methyl-1H-pyrazol-3-yl]amino}pyrimidin-4-yl)-3-methyl-5,6-dihydrocyclopenta[c]pyrazol-4(1H)-one]: 0.12 µM.
